# Activity calls are given as the source filed them.
# Legend:
# Jurkat = test: blockers of NF-kB activation in T cells – Jurkat, luciferase reporter, luminescence, B- and T-cell, dose response (AID 489004); format: functional, cell-based; settings: Homo sapiens;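 further: NF-kB luciferase reporter Jurkat cells stimulated with PMA plus ionomycin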
# [1] = viability loss in CEM21 cells – cell-based, CellTiter-Glo luminescence, cherry-picked, cytotoxicity control for viral fusion inhibitor project, dose response (AID 652042); format: functional;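 further: potency for signal decrease meaning cytotoxicity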
# [2] = HEK-293T viability loss, compound-treated – cell-based, uHTS hits, cytotoxicity control for B/T-cell NF-kB inhibitor project, dose response (AID 489019); format: functional;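 further: IC50 reflects cytotoxicity as loss of cell viability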
# Paired box protein Pax-8 = Paired box protein Pax-8 (Homo sapiens, UniProt Q06710); test: PAX8 transcriptional activity inhibition in RMG-I – RMG-I cells, luciferase, cherry-pick, dose response (AID 687027); format: functional, cell-based;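 further: luciferase reporter driven by Pax8 target thyroperoxidase promoter measured by SteadyGlo luminescence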
# Paired box protein Pax-8, sequence (Q06710 whole entry, the tested form may be a part): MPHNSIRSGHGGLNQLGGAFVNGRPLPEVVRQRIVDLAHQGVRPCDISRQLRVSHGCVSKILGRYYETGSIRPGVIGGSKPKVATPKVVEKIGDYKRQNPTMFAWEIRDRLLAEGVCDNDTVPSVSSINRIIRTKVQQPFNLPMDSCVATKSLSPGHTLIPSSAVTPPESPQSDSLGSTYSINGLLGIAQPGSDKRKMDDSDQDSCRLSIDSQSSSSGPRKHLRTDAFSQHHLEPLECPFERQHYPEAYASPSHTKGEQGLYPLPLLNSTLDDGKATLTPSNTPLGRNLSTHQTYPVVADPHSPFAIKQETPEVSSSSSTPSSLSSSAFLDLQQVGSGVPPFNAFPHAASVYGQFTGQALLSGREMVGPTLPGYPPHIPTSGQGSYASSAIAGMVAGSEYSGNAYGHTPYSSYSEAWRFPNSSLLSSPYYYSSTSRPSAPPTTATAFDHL
# [3] = off-target signal loss in HeLa-CEM21 co-culture – HeLa F-luc CTL cells, cherry-picked, counter-screen for HIV-1 Env fusion inhibitor project, dose response (AID 652040); format: functional, cell-based;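 further: potency for signal decrease marking cytotoxic or nonspecific inhibition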
# [4] = blockers of HIV-1 envelope-mediated cell-cell fusion – cherry-pick, dose response (AID 652057); format: functional, cell-based
# [5] = blockers of HIV-1 ZM109 envelope-driven cell-cell fusion – HeLa effector, CEM target cells, luciferase, cherry-pick, dose response (AID 652058); format: functional, cell-based;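 further: luciferase signal from HIV-1 Env mediated cell-cell fusion of effector and target cells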
# [6] = Luminescence Cell-Based Dose Retest to Confirm Inhibitors of Cancer Stem Cells. [Related pubchem assays (depositor defined):AID2717, AID2721]; format: functional; settings: Homo sapiens
# [7] = HIV-1 AD8 envelope cell-cell fusion blockers – cherry-pick, dose response (AID 652062); format: functional, cell-based;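 further: luciferase signal from cell-cell fusion driven by HIV-1 clade B AD8 Env; potency is for inhibitors of fusion seen as a drop in luminescence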
# [8] = molecular target: T1, Endoribonuclease toxin MazF (Escherichia coli K-12, UniProt P0AE70); test: substrate-only fluorescence increase artefacts – biochemical, single-stranded RNase substrate, counter-screen for MazEF activator project, dose response (AID 588502); format: functional
# T1 sequence (P0AE70 whole entry): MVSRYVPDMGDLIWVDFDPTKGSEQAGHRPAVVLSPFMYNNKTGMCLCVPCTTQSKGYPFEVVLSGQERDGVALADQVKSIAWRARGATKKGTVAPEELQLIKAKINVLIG
# [9] = molecular target: T1, Endoribonuclease toxin MazF; test: activation of MazEF endoribonuclease cleavage – biochemical, fluorescence, single-stranded RNA substrate, uHTS hits, dose response (AID 588481); format: functional
# [10] = molecular target: T2, Short transient receptor potential channel 4 (Mus musculus, UniProt Q9QUQ5); test: calcium entry via TRPC4 opening agents – cell-based, HEK293 TRPC4/mu-opioid, Fluo-4 calcium, dose response (AID 434937); format: functional
# T2 sequence (Q9QUQ5 whole entry): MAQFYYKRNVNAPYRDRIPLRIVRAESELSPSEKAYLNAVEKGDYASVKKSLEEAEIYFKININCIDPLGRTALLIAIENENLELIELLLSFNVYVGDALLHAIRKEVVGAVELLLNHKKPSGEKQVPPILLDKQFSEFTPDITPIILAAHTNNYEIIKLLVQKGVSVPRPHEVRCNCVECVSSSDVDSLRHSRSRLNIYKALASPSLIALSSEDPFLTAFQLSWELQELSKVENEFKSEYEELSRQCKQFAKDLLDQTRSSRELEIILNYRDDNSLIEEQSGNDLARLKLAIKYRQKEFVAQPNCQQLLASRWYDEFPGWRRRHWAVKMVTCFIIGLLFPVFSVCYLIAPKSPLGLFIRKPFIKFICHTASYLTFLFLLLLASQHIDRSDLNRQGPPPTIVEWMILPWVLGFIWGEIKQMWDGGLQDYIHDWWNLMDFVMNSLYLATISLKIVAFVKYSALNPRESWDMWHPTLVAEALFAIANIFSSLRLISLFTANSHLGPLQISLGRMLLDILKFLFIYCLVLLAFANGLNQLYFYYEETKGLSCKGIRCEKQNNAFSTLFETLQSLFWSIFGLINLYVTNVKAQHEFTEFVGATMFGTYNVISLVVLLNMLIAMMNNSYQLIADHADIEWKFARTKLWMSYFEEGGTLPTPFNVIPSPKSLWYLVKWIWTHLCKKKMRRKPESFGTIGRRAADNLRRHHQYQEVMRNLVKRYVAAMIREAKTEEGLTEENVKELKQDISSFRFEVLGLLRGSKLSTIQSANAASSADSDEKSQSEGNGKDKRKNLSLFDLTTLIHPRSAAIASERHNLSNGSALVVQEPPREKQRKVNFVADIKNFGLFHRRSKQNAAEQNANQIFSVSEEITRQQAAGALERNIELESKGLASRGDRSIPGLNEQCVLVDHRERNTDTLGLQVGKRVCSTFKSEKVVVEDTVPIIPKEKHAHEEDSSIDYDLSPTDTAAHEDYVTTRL
# [11] = molecular target: T2, Short transient receptor potential channel 4; test: block of DAMGO-driven TRPC4 calcium entry – cell-based, HEK293 TRPC4/mu-opioid, Fluo-4 calcium, dose response (AID 434942); format: functional;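 further: potency of inhibitors blocking the TRPC4 calcium response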
# H4 = test: Luminescence Cell-Based Dose Response HTS to Identify Activators of 5'UTR Stem-Loop Driven Prion Protein mRNA Translation in H4 Neuroglioblastoma Cells. [Related pubchem assays: 1829 (Project Summary), 1814 (Primary HTS)]; format: functional; settings: Homo sapiens
# [12] = Luminescence Cell-Based Dose Confirmation HTS to Identify Activators of 5'UTR Stem-Loop Driven Alpha-Synuclein mRNA Translation in H4 Neuroglioblastoma Cells. [Related pubchem assays: 1829 (Project Summary), 1814 (Primary HTS)]; format: functional
# HEK293 = test: cells; format: functional, cell-based; settings: Homo sapiens
# cells [13] = format: functional, cell-based
# cells [14] = format: functional, cell-based; remark: listed apart in the source
# [15] = Luminescence Cell-Based Dose Response HTS to Identify Activators of Luciferase Translation or Activity in H4 […] Cells. [Related pubchem assays: 1829 (Project Summary), 1814 (Primary HTS)]; format: functional
# [16] = molecular target: T3, Nuclear receptor subfamily 0 group B member 1 (Homo sapiens, UniProt P51843); test: Luminescence-based cell-based high throughput dose response assay for inhibitors of the orphan nuclear receptor subfamily 0, group B, member 1 (DAX1; NR0B1). [Related pubchem assays (depositor defined):AID504766, AID504790]; format: functional
# T3 sequence (P51843 whole entry): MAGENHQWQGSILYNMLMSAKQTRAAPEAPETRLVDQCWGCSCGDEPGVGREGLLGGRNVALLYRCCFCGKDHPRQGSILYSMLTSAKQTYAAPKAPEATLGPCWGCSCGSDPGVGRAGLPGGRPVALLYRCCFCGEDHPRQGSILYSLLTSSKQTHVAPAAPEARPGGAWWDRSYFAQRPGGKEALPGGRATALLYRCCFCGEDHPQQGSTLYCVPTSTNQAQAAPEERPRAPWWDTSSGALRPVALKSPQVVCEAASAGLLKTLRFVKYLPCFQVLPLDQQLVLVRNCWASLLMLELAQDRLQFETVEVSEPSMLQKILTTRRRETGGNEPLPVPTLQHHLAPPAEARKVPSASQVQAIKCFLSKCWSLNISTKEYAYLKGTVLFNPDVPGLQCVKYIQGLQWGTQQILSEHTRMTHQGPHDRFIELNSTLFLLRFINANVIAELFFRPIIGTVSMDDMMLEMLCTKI
# [17] = viability loss of HPDE-C7K cells – cell-based, fluorescence, HTS, primary screen (AID 431); format: functional; settings: Homo sapiens
# [18] = HPDE-C7 pancreatic duct cell viability loss – fluorescence, HTS (AID 430); format: functional, cell-based; settings: Homo sapiens
# [19] = molecular target: T4, Microphthalmia-associated transcription factor (Homo sapiens, UniProt O75030); test: reducers of TRPM1 reporter luminescence, concentration series – cell-based, SK-MEL-5, cherry-picked, set 3, MITF inhibitor project, dose response (AID 493073); format: functional;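 further: SK-MEL-5 melanoma cells with luciferase driven by the MITF target TRPM1 promoter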
# T4 sequence (O75030 whole entry): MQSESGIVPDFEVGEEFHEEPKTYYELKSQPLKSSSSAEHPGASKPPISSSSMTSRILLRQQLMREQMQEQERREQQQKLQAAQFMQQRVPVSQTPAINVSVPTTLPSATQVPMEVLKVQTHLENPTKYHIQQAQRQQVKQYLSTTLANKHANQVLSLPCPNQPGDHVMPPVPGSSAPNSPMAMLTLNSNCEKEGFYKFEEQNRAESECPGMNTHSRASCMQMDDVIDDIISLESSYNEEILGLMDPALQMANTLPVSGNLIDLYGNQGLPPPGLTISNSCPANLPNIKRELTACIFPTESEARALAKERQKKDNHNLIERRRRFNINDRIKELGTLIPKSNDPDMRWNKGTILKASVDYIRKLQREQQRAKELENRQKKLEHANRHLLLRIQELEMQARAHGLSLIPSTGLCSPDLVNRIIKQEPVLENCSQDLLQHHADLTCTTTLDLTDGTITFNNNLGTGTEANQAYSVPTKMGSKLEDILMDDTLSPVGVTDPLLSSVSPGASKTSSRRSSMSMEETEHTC
# A-375 = test: proliferation inhibition in MITF-low A375 cells – cell-based, cherry-pick samples, set 2, counter-screen for MITF modulator project, dose response (AID 540335); format: functional; settings: Homo sapiens
# [20] = molecular target: T5, DNA repair protein RAD52 homolog (Homo sapiens, UniProt P43351); format: functional, biochemical
# T5 sequence (P43351 whole entry): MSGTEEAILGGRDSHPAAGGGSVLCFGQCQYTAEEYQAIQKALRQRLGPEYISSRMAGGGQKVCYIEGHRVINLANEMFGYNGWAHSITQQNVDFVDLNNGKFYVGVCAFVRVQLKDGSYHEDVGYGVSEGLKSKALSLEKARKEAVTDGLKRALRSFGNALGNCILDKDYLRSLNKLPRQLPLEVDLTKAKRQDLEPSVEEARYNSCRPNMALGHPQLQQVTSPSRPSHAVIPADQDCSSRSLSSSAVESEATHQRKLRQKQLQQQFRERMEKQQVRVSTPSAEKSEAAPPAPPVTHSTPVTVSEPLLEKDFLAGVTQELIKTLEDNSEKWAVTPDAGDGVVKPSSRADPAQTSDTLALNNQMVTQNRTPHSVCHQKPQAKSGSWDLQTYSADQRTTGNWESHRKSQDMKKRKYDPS
# [21] = molecular target: T6, Ubiquitin-conjugating enzyme E2 N (Homo sapiens, UniProt P61088); format: functional;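 further: Dose-response confirmation in a TR-FRET assay detecting UBC13-driven polyubiquitin chain formation, inhibition measured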
# T6 sequence (P61088 whole entry): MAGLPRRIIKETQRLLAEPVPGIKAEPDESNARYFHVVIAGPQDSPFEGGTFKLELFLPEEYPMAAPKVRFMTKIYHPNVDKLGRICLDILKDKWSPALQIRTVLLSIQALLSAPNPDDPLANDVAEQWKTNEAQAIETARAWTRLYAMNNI
# [22] = molecular target: Beta-2 adrenergic receptor (Homo sapiens, UniProt P07550); test: ADRB2 activation measured by internalization – cell-based, FAP fluorogen, flow cytometry, cherry pick 1, dose response (AID 588763); format: functional
# Beta-2 adrenergic receptor, sequence (P07550 whole entry): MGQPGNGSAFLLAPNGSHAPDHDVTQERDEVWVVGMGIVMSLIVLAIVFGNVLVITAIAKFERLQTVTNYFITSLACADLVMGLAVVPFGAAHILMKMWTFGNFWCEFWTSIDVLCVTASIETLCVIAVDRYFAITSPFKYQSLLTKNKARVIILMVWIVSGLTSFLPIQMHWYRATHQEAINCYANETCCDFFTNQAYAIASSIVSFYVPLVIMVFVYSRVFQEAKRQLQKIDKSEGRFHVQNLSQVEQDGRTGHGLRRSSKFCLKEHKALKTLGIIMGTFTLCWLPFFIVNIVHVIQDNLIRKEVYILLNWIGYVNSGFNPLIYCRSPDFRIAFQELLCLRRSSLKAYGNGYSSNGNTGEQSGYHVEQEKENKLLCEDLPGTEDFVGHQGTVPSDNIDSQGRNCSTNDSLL
# [23] = alpha-synuclein stem-loop luciferase translation blockers – H4 neuroglioma cells, luminescence, confirmation (AID 1988); format: functional, cell-based
# [24] = Luminescence Cell-Based Dose Response HTS to Identify Inhibitors of 5'UTR Stem-Loop Driven Prion Protein mRNA Translation in H4 Neuroglioblastoma Cells. [Related pubchem assays: 1827 (Project Summary), 1813 (Primary HTS)]; format: functional
# [25] = general mammalian cell viability loss – inhibitor set, cherry-pick, set 2, cytotoxicity control for miR-122 modulator project, dose response (AID 720697); format: functional, cell-based
# [26] = activation of miR-122 Renilla sensor silencing – cell-based, Huh7 psiCHECK-miR122, Renilla luciferase, cherry-picked, dose response (AID 651956); format: functional;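 further: huh7 hepatoma cells stably carrying a psiCHECK-2 miR-122 sensor plasmid; renilla luciferase signal reporting endogenous miR-122 activity after 48 h compound exposure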
smiles,measurement,setting,value
C[C@@H]1O[C@@H](O[C@@H]2C=C3CC[C@@H]4C(CC[C@]5(C)[C@@H](c6ccc(=O)oc6)CC[C@]45O)[C@@]3(C)CC2)[C@H](O)[C@H](O)[C@H]1O (some centres not stated),IC50,Jurkat,0.33 µM (active)
same,AC50,[1],0.613 µM (active)
same,IC50,[2],> 80 µM (inactive)
same,AC50,Paired box protein Pax-8,< 0.26 µM (active)
same,AC50,[3],< 0.26 µM (active)
same,AC50,[4],0.799 µM (active)
same,AC50,[5],0.319 µM (active)
same,AC50,[6],< 0.16 µM (active)
same,AC50,[7],0.54 µM (active)
O=C(Nc1ccc2oc(-c3ccccc3)nc2c1)c1cc(-n2cnnc2)ccc1Cl,EC50,[8],> 99 µM (inactive)
same,EC50,[9],> 99 µM (inactive)
OCC1(CC2CCCCO2)CCN(Cc2nc3ccccc3[nH]2)CC1 (configuration not stated),EC50,[10],5.31 µM (active)
same,EC50,[11],3.35 µM (active)
COc1ccc(C(=O)NC2=Nc3ccccc3N=C(C)C2c2ccccc2)cc1 (configuration not stated),EC50,H4,18.9 µM (active)
same,EC50,[12],9.66 µM (active)
same,IC50,HEK293,3.47 µM (active)
same,EC50,cells [13],78.6 µM (active)
same,EC50,cells [14],34.7 µM (active)
same,EC50,[15],40.7 µM (active)
same,IC50,[16],> 67.5 µM (inactive)
CCCCN(CC)CCCNC(=O)Cn1nc(Cc2ccncc2)c2ccccc2c1=O,EC50,[10],0.168 µM (active)
same,EC50,[17],> 20 µM (not active)
same,EC50,[18],> 20 µM (not active)
CN(C)S(=O)(=O)c1cc(NC2CC(=O)N(c3ccc(F)cc3)C2=O)ccc1Cl (configuration not stated),IC50,HEK293,> 67.5 µM (inactive)
same,IC50,[16],> 67.5 µM (inactive)
Cc1c(CCOC(=O)c2ccc(Cl)cc2Cl)sc[n+]1CC(=O)c1ccc(Br)cc1,AC50,[19],19.8 µM (active)
same,AC50,A-375,23.5 µM (active)
same,AC50,[20],13 µM (active)
same,IC50,[21],> 20 µM (inactive)
O=C1C2CCCCN2C(=O)N1CCCCN1CCN(c2cccc(C(F)(F)F)c2)CC1 (configuration not stated),EC50,[22],2.52 µM (active)
Nc1nc(Cl)nc2c1ncn2[C@H]1C[C@H](O)[C@@H](CO)O1 [CLADRIBINE],IC50,Jurkat,0.66 µM (active)
same,EC50,[23],2.96 µM (active)
same,IC50,[2],> 80 µM (inactive)
same,EC50,[24],4.8 µM (active)
same,AC50,[25],9.07 µM (active)
same,AC50,[26],50.9 µM (active)
same,AC50,[6],0.24 µM (active)

# — ChEMBL document CHEMBL1201862, “PubChem BioAssay data set” (2004)
